Measurements as given in article PMC9861180, “Nintedanib-αVβ6 Integrin Ligand Conjugates Reduce TGFβ-Induced EMT in Human Non-Small Cell Lung Cancer” (International Journal of Molecular Sciences, 2023).
Entries after “also recorded” stand apart in the source; their conditions may differ.

Columns and labels:
TGFβ-treated A549 cells [1] = experiment: Clonogenic assay; type: cell-based, human; details: sorted fluorescence-positive TGFβ-treated A549 cells after 5 μM 24 h; 2 weeks growth
Experimental: (A) After incubation, cells were sorted (BDMelody) and isolated cells from the selected population (indicated as P4) were seeded at low density (1000 cells/6 well petri dishes). (B) Number of colonies obtained after 2 weeks growth in standard media. (C) Quantification of colonies.
A549 lung adenocarcinoma cells were grown in the presence of TGFβ for 48 h. […] At the end of the incubation, cells were sorted using a fluorescence activated cell sorter (Melody, Becton Dickinson, Bioscience, Eysins, Switzerland). […] Activation of the labelled cells was provided by the violet laser (ex = 405 nm) while sorting of the activated cells was performed by their emitted wavelength at 480 nm (detection filter 450/50, using the BV480 channel). Isolated cells (1 × 10^3) were seeded in a FN-coated 6 well dishes. These isolated cells were cultured for 2 weeks. The medium was changed every 4 days until the emergence of colonies. The colonies were fixed and stained with Diff-Quick solution.

TGFβ-treated A549 cells [2] = experiment: cells; type: cell-based, human
Experimental: A549 cell viability was assessed using MTT (3-(4,5-dimethylthiazol-2-yl)-2,5-diphenyltetrazolium bromide) tetrazolium reduction assay (M5655, Sigma Aldrich, Milan, Italy), as described in [58]. Briefly, A549 cells were treated for 48 h in complete medium with TGFβ (10 ng/mL). Next, cells (2.5 × 10^3) were plated into 96-multiwell plates in 100 µL of complete medium. After adhesion, the compounds were added to the medium at different concentrations. After 24 h exposure, the medium was replaced with 100 µL MTT reagent in each well, and plates were incubated at 37 °C. After 2 h, MTT was removed, and the blue MTT–formazan product was solubilized with dimethyl sulfoxide (DMSO, Sigma Aldrich). The absorbance of the formazan solution was read at 595 nm using the microplate reader (Bio-Rad, Milan, Italy). Inhibition of cell proliferation was calculated by the IC50 calculator (AAT Bioquest, Inc., Pleasanton, CA, USA, https://www.aatbio.com/ (accessed on 1 July 2022)).

[3] = tested on: tumor spheroids of TGFβ-treated A549 cells and murine L929 fibroblasts; experiment: Tumor spheroid 2D flat surface migration and growth; type: cell-based, human; details: 5 µM, fibronectin-coated flat surface
Experimental: Heterogeneous spheroids of tumor cells and fibroblasts were also used to evaluate the ability of the compounds to inhibit 2D flat surface migration and growth once the spheroids were allowed to attach to a suitable surface (Figure 8).
Hanging drop tumor spheroids were allowed to spread on a 2D fibronectin-coated flat surface. […] Data are representative of three independent experiments (n = 6) and expressed as means ± SEM. * p < 0.05 vs. untreated spheroids.
A549 cells, exposed for 48 h to TGFβ treatment, were mixed in a 1:1 ratio with murine L929 fibroblast (40,000/mL) in order to obtain 3D multicellular tumor spheroids (MCTS) resembling cellular heterogenicity of the neoplastic lesion. […] After one week, multicellular tumor spheroids were completely formed. Tumor spheroids were next used in different experimental procedures. We evaluated 2D flat surface inhibition of migration and growth, and the inhibition of 3D growth. For 2D flat surface migration and growth inhibition assays, the spheroids were placed on regular culture dishes and allowed to spread and grow in complete medium containing different compounds at 5 µM concentration. The areas of cell spreading were used as parameters for migration (red lines), while the areas of the spheroid core were used as parameters for 2D growth (yellow lines). For 3D growth inhibition, spheroids were placed on 2% agarose coated dishes in complete medium containing the different treatments at 5 µM concentration. Spheroid areas were analysed and compared to time 0 and used to evaluate the inhibition of 3D growth (yellow lines). Images of all spheroids were taken daily using the EVOS XL Core Imaging System with a 10x objective (Thermofisher Scientific, Waltham, MA, USA ). All images were analysed using the open-source software ImageJ (1.52a, National Institutes of Health, Bethesda, MD, USA).

[4] = tested on: α-smooth muscle actin (α-SMA); experiment: α-smooth muscle actin protein expression, Western blot; type: cell-based, human; details: TGFβ-treated A549 cells, 5 μM, 24 h
Experimental: Data are expressed as means ± SEM of fold increment compared to untreated cells normalized to α-tubulin.
Western blot analysis was performed on whole-cell lysates of A549 cells, exposed for 48 h to TGFβ treatment and subsequently exposed to 5 µM concentrations of different compounds. After 24 h incubation, media were rapidly removed and cell monolayers were lysed as previously described in RIPA lysis buffer, with the addition of proteinase inhibitor cocktail (04693124001 Roche Merk Life Science S.r.l., Milano, Italy) for 30 min in ice [35]. Protein content was quantified, and forty-fifty micrograms of total proteins were separated on Bolt® Bis-Tris Plus gels 4–12% (Life Technologies, Monza, Italy). Fractionated proteins were transferred from the gel to a PVDF nitrocellulose membrane using iBlot 2 system (Life Technologies, Monza, Italy). Membranes were blocked for 5 min at room temperature, with EveryBlot Biorad blocking buffer (Life Technologies, Monza, Italy). […] The protein bands were analyzed by the Odyssey Infrared Imaging System (Lycor Bioscience) using software for protein quantification. […]

TGFβ-treated A549 cells [5] = experiment: Invasion assay through fibronectin-coated filters; type: cell-based; details: Homo sapiens, 24 h, read-out: migration inhibition (invasiveness) with respect to control
Experimental: The first assay envisaged the evaluation of cellular invasiveness of TGFβ-treated A549 cells by measuring the capacity of cells to migrate through fibronectin-coated filters.
Cells were allowed to migrate towards fibronectin-coated filters (10 μg/μL). Right panel, quantification of invasiveness. Data are percentages of migrated cells compared to untreated cells and expressed as mean value ± SEM of at least three independent experiments. * p < 0.05 and ** p < 0.001 vs. untreated cells. […] Experiments were performed at least three times.
Invasiveness of A549 cells was determined in vitro on fibronectin-precoated polycarbonate inserts (Sarstedt 83.3932.800, 8µm pore size, 0.3 cm^2 growth surface). Briefly, 50 µL of 10 μg/mL of fibronectin solution were seeded on each insert and allowed to dry in sterile conditions (1.6 µg/cm^2). A549 human lung carcinoma cells were grown in the presence of TGFβ for 48 h. After incubation, 3.5 × 10^4 cells were exposed to the different compounds, in serum-free medium (at 5 µM concentration), seeded in the upper compartment of the insert, and were free to perform in the absence of any chemoattractant. Inserts were incubated for 24 h at 37 °C in 10% CO2 in air. […] Photographs of randomly chosen fields were taken, and migrated cells were counted in 4 field/photograph.

TGFβ-treated A549 cells [6] = experiment: F-actin cytoskeleton by confocal analysis (rhodamine-phalloidin); type: cell-based, human; details: 5 μM, 24 h
Experimental: After incubation, cells were fixed and processed for fluorescence confocal imaging. The cell cytoskeleton was stained with rhodamine-conjugated phalloidin. Image dimensions: 180 × 180 μm, scale bar 50 μm. Experiments were performed at least three times. (C) Quantification of disassembled cytoskeleton expressed as the percentage of cells with point-like fluorescence signals/total cells per field. Data are representative of three independent experiments. * p < 0.05, and ** p < 0.001 vs. TGFβ treated cells.
A549 cells, exposed for 48 h to TGFβ treatment, were grown on fibronectin-coated (10 µg/mL) (sc-29011 SantaCruz, D.B.A., Milano Italy) glass coverslips in 6-well plates for 2 h, after which adherent cells were exposed to the different treatments, in the absence of FCS, for 24h. After incubation, the culture medium was removed, cells were washed with PBS, and fixed 30 min at 4 °C with 3.7% paraformaldehyde. Cells were permeabilized for 15 min with PBS 0.1% Tryton X-100 at room temperature, and then incubated 1 h at room temperature with blocking buffer (0.1% Tryton X-100 and 5.5% horse serum PBS). […] A single composite image was obtained by superimposition of 20 optical sections for each sample analyzed.

K562 cells = experiment: Cell internalization by flow cytometry, αvβ6-negative K562; type: cell-based, human; details: 5 µM
Source text: In these cells, 74% of cells were positive after exposure to compound 1, whilst after exposure to compounds 2 and 3, positive cells ranged between 43.8 and 49% (Figure 4A). […] In addition, we investigated the internalization in αvβ6-negative K562 cells. […] Finally, two other αvβ6 integrin-expressing cell lines were used to evaluate the internalization of these compounds, namely the human melanoma cells SSM2c (Figure S4B) and the L929 murine fibroblasts (Figure S5B).
Briefly, A549 cells were seeded in standard medium (2 × 10^6 cells/100 mm Petri dishes, Sarstedt), and after adhesion, cells were grown in the presence or in the absence of TGFβ (10 ng/mL) for 48 h. […] After 24 h, cells were gently detached using Accutase (ECB3056D, Euroclone, Pero, Milano, Italy) or trypsin and the fluorescence, associated with different cell populations, was evaluated using the BV480 channel of the FACSCanto BD instrument (using 405 nm laser). Untreated cells were used as the negative control. The same procedure was applied to evaluate the internalization in K562, SSM2c, and L929 cells.
3. Expression of αvβ6 integrin receptor in K562 human erythroleukemic cells and internalization of conjugated compounds or nintedanib
Figure S3. Expression of αvβ6 integrin receptor in K562 human erythroleukemia cells (A). […]
assessed by flow cytometry measurements at 5 µM concentration. […]
as assessed by flow cytometry. […]

[7] = tested on: tumor spheroids of TGFβ-treated A549 cells and murine L929 fibroblasts; experiment: Inhibition of 3D tumor spheroid growth; type: cell-based, human; details: 5 µM, 72 h, vs untreated spheroids
Experimental: Heterogeneous spheroids of tumor cells and fibroblasts were generated using the hanging drop technique to mimic the complex three-dimensional environment of tumor tissues. […] Next, the fluorescence intensities associated with each cell population were analyzed as previously described.
Hanging drop tumor spheroids were prepared starting from 1:1 mixed cell population (1000 cells/25μL) of TGF𝛽-treated A549 cells and murine L929 fibroblasts. […] (C) Quantitative analysis of inhibition of 3D growth and (D) 3D spheroid internalization of the compounds after 72 h exposure. Data are representative of three independent experiments (n = 6) and expressed as means ± SEM. * p < 0.05 vs. untreated spheroids.
A549 cells, exposed for 48 h to TGFβ treatment, were mixed in a 1:1 ratio with murine L929 fibroblast (40,000/mL) in order to obtain 3D multicellular tumor spheroids (MCTS) resembling cellular heterogenicity of the neoplastic lesion. […] After one week, multicellular tumor spheroids were completely formed. Tumor spheroids were next used in different experimental procedures. […] For 3D growth inhibition, spheroids were placed on 2% agarose coated dishes in complete medium containing the different treatments at 5 µM concentration. Spheroid areas were analysed and compared to time 0 and used to evaluate the inhibition of 3D growth (yellow lines). Images of all spheroids were taken daily using the EVOS XL Core Imaging System with a 10x objective (Thermofisher Scientific, Waltham, MA, USA ). All images were analysed using the open-source software ImageJ (1.52a, National Institutes of Health, Bethesda, MD, USA).

E-cadherin = E-cadherin expression, Western blot; type: cell-based, human; details: TGFβ-treated A549 cells, 5 μM, 24 h
Experimental: Left panel, representative Western blot of E-cadherin protein expression.
Western blot analysis was performed on whole-cell lysates of A549 cells, exposed for 48 h to TGFβ treatment and subsequently exposed to 5 µM concentrations of different compounds. After 24 h incubation, media were rapidly removed and cell monolayers were lysed as previously described in RIPA lysis buffer, with the addition of proteinase inhibitor cocktail (04693124001 Roche Merk Life Science S.r.l., Milano, Italy) for 30 min in ice [35]. Protein content was quantified, and forty-fifty micrograms of total proteins were separated on Bolt® Bis-Tris Plus gels 4–12% (Life Technologies, Monza, Italy). Fractionated proteins were transferred from the gel to a PVDF nitrocellulose membrane using iBlot 2 system (Life Technologies, Monza, Italy). Membranes were blocked for 5 min at room temperature, with EveryBlot Biorad blocking buffer (Life Technologies, Monza, Italy). Subsequently, the membranes were probed at 4 °C overnight with appropriate primary antibodies diluted in a solution of 1:1 Odyssey blocking buffer/T-PBS buffer, washed four times with PBS-Tween 0.1% solution, and probed with the secondary IRDye antibodies according to manufacturering instructions. The protein bands were analyzed by the Odyssey Infrared Imaging System (Lycor Bioscience) using software for protein quantification. […]

COC(=O)c1ccc2c(c1)NC(=O)/C2=C(\Nc1ccc(N(C)C(=O)CN2CCN(C)CC2)cc1)c1ccccc1 [nintedanib, Nintedanib]
reduction of colony formation compared to untreated cells (TGFβ-treated A549 cells [1]): 50% | inhibition of cell proliferation (in words) (TGFβ-treated A549 cells [2]; 0.5-50 μM, 24 h (Figure S8)): concentration-dependent inhibition | IC50 (TGFβ-treated A549 cells [2]; Homo sapiens, A549, 24 h, read-out: IC50, inhibition of cell proliferation (MTT)): 7.5 µM | inhibition of cell proliferation (in words) (TGFβ-treated A549 cells [2]; TGFβ-treated A549 cells, concentrations >10 μM): almost completely inhibited | 2D flat surface migration of tumor spheroids [3]: significantly impaired; also recorded: strong inhibition | 2D growth of tumor spheroids (spheroid core) [3]: significantly impaired | α-SMA protein expression [4]: reduced by half | inhibition at 5 µM (TGFβ-treated A549 cells [5]): 80% | F-actin bundle disassembly (TGFβ-treated A549 cells [6]): more significant reduction in the assembly of F-actin filaments | fluorescence-positive cells (compound internalization) (K562 cells): 95–100% | inhibition of 3D spheroid growth [7]: inhibited significantly | E-cadherin expression (E-cadherin): enhanced
